ChEMBL document CHEMBL4507291 (2021)

Experiments:
[1] = biological target: Mu-type opioid receptor (Homo sapiens) (UniProt P35372); settings: Compound concentration 10.0 uM
[2] = biological target: RAC-alpha serine/threonine-protein kinase (Homo sapiens) (UniProt P31749); assay: AKT1 (PKB alpha) Kinase screen; settings: Compound concentration 1.0 uM
[3] = biological target: Casein kinase I isoform gamma-3 (Homo sapiens) (UniProt Q9Y6M4); assay: CSNK1G3 (CK1 gamma 3) Kinase screen; settings: Compound concentration 1.0 uM
Chain of Casein kinase I isoform gamma-3 (Homo sapiens) (Q9Y6M4 whole entry, looked up, canonical isoform): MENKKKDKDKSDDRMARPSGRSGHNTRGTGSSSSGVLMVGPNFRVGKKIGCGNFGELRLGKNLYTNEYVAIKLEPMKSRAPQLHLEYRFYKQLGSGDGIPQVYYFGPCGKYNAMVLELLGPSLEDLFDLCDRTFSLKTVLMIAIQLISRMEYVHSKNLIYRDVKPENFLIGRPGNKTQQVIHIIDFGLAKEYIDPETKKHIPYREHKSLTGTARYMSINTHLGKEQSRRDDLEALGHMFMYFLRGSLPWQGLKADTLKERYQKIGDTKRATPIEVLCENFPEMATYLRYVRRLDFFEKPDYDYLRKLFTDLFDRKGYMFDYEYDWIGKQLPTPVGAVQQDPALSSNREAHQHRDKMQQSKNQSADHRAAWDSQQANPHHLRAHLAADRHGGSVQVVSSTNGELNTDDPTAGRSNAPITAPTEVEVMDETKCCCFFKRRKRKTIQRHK

[4] = biological target: Homeodomain-interacting protein kinase 2 (Homo sapiens) (UniProt Q9H2X6); assay: HIPK2 Kinase screen; settings: Compound concentration 1.0 uM
[5] = biological target: Vascular endothelial growth factor receptor 2 (Homo sapiens) (UniProt P35968); assay: KDR (VEGFR2) Kinase screen; settings: Compound concentration 1.0 uM
[6] = biological target: LIM domain kinase 1 (Homo sapiens) (UniProt P53667); assay: LIMK1 Kinase screen; settings: Compound concentration 1.0 uM
Chain of LIM domain kinase 1 (Homo sapiens) (P53667 whole entry, looked up, the tested form may be a part): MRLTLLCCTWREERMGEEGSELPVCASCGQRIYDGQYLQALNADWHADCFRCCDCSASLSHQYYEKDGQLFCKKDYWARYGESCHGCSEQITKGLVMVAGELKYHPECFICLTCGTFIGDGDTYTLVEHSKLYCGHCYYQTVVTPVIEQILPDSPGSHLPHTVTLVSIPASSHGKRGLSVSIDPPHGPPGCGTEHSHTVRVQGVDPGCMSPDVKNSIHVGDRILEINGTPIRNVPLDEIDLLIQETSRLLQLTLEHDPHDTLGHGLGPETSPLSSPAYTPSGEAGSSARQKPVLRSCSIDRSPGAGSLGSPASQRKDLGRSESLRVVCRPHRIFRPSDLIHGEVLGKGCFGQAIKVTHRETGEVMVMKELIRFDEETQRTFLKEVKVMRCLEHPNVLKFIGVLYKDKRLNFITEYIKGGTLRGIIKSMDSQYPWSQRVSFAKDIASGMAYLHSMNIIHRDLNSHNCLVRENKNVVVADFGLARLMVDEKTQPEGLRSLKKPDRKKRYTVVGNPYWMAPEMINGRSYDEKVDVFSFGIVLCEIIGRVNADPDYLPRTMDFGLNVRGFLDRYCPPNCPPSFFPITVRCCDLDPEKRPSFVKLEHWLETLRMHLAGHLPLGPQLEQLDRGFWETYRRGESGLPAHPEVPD

[7] = biological target: Dual specificity mitogen-activated protein kinase kinase 1 (Homo sapiens) (UniProt Q02750); assay: MAP2K1 (MEK1) Kinase screen; settings: Compound concentration 1.0 uM
Chain of Dual specificity mitogen-activated protein kinase kinase 1 (Homo sapiens) (Q02750 whole entry): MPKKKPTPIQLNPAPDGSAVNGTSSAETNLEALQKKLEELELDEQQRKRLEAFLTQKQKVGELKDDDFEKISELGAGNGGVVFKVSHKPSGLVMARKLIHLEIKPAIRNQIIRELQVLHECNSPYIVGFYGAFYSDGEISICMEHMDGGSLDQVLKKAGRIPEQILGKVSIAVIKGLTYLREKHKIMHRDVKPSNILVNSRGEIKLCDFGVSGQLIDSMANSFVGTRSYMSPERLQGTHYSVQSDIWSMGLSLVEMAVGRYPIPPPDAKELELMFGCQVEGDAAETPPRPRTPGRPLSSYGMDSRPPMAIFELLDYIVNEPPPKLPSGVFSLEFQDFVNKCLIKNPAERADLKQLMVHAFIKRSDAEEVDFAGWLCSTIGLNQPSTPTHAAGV

[8] = biological target: Mitogen-activated protein kinase kinase kinase 11 (Homo sapiens) (UniProt Q16584); assay: MAP3K11 (MLK3) Kinase screen; settings: Compound concentration 1.0 uM
[9] = biological target: T1, Mitogen-activated protein kinase kinase kinase 3 (Homo sapiens) (UniProt Q99759); assay: MAP3K3 (MEKK3) Kinase screen; settings: Compound concentration 1.0 uM
T1 sequence (whole entry): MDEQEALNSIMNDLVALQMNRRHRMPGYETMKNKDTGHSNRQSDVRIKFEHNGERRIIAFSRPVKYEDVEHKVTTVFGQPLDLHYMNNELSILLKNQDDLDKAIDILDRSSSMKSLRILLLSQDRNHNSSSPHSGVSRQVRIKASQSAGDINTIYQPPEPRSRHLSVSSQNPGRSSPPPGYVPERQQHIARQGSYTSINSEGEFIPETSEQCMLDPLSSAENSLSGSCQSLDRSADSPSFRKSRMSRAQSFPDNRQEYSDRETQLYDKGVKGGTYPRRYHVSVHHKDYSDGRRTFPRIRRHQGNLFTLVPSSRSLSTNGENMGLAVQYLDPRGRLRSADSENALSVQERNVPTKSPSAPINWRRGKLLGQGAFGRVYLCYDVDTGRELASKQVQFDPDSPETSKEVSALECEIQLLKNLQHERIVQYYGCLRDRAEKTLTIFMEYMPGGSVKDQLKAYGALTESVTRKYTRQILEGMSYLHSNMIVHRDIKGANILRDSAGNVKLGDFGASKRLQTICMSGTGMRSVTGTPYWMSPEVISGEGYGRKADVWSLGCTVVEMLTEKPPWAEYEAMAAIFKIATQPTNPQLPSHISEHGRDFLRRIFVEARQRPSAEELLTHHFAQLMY

[10] = biological target: MAP kinase-activated protein kinase 2 (Homo sapiens) (UniProt P49137); assay: MAPKAPK2 Kinase screen; settings: Compound concentration 1.0 uM
Chain of MAP kinase-activated protein kinase 2 (Homo sapiens) (P49137 whole entry, looked up): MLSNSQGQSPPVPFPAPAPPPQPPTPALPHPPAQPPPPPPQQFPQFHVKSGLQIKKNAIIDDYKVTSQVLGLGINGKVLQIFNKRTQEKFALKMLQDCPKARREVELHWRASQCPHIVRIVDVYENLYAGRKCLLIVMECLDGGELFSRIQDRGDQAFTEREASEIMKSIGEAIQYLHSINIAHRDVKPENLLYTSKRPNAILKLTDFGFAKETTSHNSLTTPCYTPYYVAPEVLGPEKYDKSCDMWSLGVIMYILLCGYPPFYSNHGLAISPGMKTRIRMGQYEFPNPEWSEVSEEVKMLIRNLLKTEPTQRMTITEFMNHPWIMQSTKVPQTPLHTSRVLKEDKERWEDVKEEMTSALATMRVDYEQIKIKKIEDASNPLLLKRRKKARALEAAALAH

[11] = biological target: Hepatocyte growth factor receptor (Homo sapiens) (UniProt P08581); assay: MET (cMet) Kinase screen; settings: Compound concentration 1.0 uM
Chain of Hepatocyte growth factor receptor (Homo sapiens) (P08581 whole entry): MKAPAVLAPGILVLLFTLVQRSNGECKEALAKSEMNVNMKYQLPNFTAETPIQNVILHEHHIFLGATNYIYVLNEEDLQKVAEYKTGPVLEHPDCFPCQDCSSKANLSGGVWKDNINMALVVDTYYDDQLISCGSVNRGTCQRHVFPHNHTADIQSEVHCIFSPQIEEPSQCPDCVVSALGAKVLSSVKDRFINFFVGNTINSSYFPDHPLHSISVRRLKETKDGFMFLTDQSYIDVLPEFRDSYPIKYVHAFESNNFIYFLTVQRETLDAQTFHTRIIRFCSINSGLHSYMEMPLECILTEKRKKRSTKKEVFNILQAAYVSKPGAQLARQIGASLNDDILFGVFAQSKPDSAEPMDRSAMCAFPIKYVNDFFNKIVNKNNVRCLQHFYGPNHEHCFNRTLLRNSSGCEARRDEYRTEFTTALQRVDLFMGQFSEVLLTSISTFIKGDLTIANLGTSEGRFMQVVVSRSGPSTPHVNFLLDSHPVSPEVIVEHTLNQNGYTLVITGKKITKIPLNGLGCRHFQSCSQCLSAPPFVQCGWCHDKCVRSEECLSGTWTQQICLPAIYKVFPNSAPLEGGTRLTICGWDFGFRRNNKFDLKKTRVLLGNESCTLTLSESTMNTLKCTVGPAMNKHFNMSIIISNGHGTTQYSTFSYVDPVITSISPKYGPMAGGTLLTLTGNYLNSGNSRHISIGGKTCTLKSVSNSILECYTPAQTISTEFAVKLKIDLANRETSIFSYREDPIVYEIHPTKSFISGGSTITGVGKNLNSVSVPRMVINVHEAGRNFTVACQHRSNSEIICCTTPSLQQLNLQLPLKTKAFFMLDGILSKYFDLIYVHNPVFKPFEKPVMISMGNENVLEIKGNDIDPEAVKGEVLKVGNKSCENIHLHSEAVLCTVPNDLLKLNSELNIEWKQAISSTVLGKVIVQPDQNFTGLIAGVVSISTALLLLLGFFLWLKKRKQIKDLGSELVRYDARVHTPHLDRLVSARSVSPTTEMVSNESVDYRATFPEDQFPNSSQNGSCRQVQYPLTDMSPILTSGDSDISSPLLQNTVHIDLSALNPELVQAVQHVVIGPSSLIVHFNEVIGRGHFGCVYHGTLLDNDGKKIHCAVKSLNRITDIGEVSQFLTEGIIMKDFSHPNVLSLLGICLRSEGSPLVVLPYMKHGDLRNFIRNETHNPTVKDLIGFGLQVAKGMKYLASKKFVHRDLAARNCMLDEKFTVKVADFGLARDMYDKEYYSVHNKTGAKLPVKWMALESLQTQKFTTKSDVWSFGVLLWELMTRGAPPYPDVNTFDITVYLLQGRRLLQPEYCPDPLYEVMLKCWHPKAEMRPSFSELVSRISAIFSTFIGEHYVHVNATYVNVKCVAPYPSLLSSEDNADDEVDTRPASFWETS

[12] = test system: Hepatocyte growth factor receptor (Homo sapiens), P08581 [M1250T]; assay: MET M1250T Kinase screen; settings: Compound concentration 1.0 uM
[13] = biological target: Myosin light chain kinase 2, skeletal/cardiac muscle (Homo sapiens) (UniProt Q9H1R3); assay: MLCK (MLCK2) Kinase screen; settings: Compound concentration 1.0 uM
Chain of Myosin light chain kinase 2, skeletal/cardiac muscle (Homo sapiens) (Q9H1R3 whole entry): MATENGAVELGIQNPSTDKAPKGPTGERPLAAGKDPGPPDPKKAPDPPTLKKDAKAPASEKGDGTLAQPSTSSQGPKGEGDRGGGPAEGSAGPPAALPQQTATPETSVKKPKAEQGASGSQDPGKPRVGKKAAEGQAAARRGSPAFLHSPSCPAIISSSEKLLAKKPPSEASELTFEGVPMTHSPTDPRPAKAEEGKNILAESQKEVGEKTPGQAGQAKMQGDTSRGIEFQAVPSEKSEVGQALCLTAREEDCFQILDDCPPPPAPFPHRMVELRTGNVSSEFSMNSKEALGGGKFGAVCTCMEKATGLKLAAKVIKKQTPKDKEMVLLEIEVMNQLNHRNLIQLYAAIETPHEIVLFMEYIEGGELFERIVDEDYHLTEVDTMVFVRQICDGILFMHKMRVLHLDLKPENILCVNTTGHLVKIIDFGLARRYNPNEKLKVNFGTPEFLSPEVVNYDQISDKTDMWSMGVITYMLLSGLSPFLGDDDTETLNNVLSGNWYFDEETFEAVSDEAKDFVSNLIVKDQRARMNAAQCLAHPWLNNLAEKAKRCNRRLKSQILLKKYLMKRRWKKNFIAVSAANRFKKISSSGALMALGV

[14] = biological target: Serine/threonine-protein kinase Nek7 (Homo sapiens) (UniProt Q8TDX7); assay: NEK7 Kinase screen; settings: Compound concentration 1.0 uM
Chain of Serine/threonine-protein kinase Nek7 (Homo sapiens) (Q8TDX7 whole entry, looked up): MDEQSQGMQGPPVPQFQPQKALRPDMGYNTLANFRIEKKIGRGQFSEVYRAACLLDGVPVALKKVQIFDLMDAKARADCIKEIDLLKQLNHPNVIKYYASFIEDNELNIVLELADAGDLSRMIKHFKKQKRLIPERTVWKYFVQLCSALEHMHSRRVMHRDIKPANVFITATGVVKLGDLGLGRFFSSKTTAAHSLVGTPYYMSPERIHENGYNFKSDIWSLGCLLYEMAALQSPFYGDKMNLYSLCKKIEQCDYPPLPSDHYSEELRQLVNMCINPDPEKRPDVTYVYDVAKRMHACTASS

[15] = biological target: High affinity nerve growth factor receptor (Homo sapiens) (UniProt P04629); assay: NTRK1 (TRKA) Kinase screen; settings: Compound concentration 1.0 uM
[16] = biological target: Phosphatidylinositol 3-kinase catalytic subunit type 3 (Homo sapiens) (UniProt Q8NEB9); assay: PIK3C3 (hVPS34) Kinase screen; settings: Compound concentration 1.0 uM
[17] = biological target: cAMP-dependent protein kinase catalytic subunit alpha (Homo sapiens) (UniProt P17612); assay: PRKACA (PKA) Kinase screen; settings: Compound concentration 1.0 uM
[18] = biological target: T2, Protein kinase C epsilon type (Homo sapiens) (UniProt Q02156); assay: PRKCE (PKC epsilon) Kinase screen; settings: Compound concentration 1.0 uM
T2 sequence (whole entry): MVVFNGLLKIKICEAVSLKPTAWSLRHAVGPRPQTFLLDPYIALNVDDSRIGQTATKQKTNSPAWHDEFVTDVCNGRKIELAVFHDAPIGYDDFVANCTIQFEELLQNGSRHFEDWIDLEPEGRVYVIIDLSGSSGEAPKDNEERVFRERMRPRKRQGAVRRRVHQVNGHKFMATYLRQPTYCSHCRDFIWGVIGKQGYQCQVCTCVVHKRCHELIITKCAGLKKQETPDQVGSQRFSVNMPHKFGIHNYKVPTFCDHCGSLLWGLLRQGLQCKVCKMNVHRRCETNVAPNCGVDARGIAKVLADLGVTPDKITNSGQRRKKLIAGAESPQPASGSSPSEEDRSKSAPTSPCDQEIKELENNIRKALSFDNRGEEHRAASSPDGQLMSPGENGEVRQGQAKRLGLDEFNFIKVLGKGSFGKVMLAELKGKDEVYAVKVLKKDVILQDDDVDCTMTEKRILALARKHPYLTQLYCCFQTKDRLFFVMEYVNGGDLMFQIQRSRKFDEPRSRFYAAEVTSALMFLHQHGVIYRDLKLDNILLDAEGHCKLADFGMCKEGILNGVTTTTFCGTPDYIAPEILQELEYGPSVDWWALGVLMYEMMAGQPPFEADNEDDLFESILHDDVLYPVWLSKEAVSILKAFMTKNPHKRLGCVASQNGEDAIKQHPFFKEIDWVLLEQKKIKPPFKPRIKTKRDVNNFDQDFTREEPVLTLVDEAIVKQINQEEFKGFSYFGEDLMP

[19] = biological target: Ribosomal protein S6 kinase alpha-5 (Homo sapiens) (UniProt O75582); assay: RPS6KA5 (MSK1) Kinase screen; settings: Compound concentration 1.0 uM
[20] = biological target: Wee1-like protein kinase (Homo sapiens) (UniProt P30291); assay: WEE1 Kinase screen; settings: Compound concentration 1.0 uM
Caspase-8 (Homo sapiens) = Caspase-8 (Homo sapiens) (UniProt Q14790); assay: Peptidase, CASP8 (Caspase 8) Eurofins-Panlabs enzyme assay; settings: Compound concentration 10.0 uM
Caspase-9 (Homo sapiens) = Caspase-9 (Homo sapiens) (UniProt P55211); assay: Peptidase, CASP9 (Caspase 9) Eurofins-Panlabs enzyme assay; design: substrate with concentration; settings: Compound concentration 10.0 uM
Rattus norvegicus = species on record: Rattus norvegicus; assay: Glutamate, NMDA, Polyamine Eurofins-Panlabs radioligand binding assay; type: protein-complex assay; design: ligand concentration 2 nM; settings: Compound concentration 10.0 uM
[21] = biological target: Histamine H4 receptor (Homo sapiens) (UniProt Q9H3N8); assay: Histamine H4 Eurofins-Panlabs radioligand binding assay; settings: Compound concentration 10.0 uM
Chain of Histamine H4 receptor (Homo sapiens) (Q9H3N8 whole entry): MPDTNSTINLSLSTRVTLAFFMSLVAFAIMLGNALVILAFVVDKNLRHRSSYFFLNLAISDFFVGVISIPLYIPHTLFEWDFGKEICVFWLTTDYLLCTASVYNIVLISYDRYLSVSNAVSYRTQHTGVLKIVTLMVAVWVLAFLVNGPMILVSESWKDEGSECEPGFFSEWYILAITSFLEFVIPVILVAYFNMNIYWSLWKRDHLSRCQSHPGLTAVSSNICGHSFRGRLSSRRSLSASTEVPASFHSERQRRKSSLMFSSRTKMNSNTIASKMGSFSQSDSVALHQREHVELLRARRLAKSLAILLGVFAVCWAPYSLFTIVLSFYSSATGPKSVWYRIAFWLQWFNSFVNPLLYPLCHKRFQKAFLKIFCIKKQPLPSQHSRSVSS

Measured: inhibition

Chain of Mu-type opioid receptor (Homo sapiens) (P35372 whole entry): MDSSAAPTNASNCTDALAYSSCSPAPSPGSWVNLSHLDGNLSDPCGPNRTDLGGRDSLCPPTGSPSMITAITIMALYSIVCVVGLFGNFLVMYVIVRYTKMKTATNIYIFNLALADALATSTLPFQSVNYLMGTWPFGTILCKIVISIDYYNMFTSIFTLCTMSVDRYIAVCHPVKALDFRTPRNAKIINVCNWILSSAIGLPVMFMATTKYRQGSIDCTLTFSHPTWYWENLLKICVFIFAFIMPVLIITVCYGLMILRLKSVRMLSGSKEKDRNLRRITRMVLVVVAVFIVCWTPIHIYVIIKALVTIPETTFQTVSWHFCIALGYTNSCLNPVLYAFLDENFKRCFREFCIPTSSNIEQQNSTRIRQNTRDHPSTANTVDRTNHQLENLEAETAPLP

C[C@@H]1CN(c2cc(-c3nn(C)c4ccc(OC5(C)CC5)cc34)ncn2)C[C@H](C)O1 [MLi-2-NC]
inactive: [1] 13.2%

C[C@@H]1CN(c2cc(-c3n[nH]c4ccc(OC5(C)CC5)cc34)ncn2)C[C@H](C)O1 [MLi-2]
inactive: [2] 6.75% | [3] 2.15% | [4] 5.33% | [5] 3.64% | [6] 11% | [7] 8.27% | [8] -3.69% | [9] -0.743% | [10] 2.35% | [11] 5.51% | [12] 2.2% | [13] 1.73% | [14] 3.68% | [15] 0.799% | [16] 19.4% | [17] -2.26% | [18] 4.4% | [19] 0.435% | [20] 3% | Caspase-8 (Homo sapiens) 7% | Caspase-9 (Homo sapiens) 5% | Rattus norvegicus 19% | [21] -4%
